Assay results published in US20130344065A1, “Combination Treatment with VEGF-C Antagonists” (Vegenics Pty Ltd, priority 2010, published 2013).
Where “and” joins values, the source holds several entries; their conditions need not be identical. Identical values can stand only once.

Key:
[1] = system: PC-3 human prostate carcinoma xenografts; assay: PC-3 xenograft combination therapy (Example 3, first study); settings: for Tumor Growth Delay: T-C, evaluation size 750 mg; for % T/C Day 22: VGX-100 40 mg/kg IP, bevacizumab 10 mg/kg IP, docetaxel 10 mg/kg IV, median tumor mass vs control; for % TFS (tumor free survivors): at termination, Day 160; for Complete regression / Partial regression / Tumor free survivor: yes/no; for Total CR / Total PR / Total TFS: number of animals of 10;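 for all read-outs here: subcutaneous PC-3 tumors in male athymic NCr nude mice aged 6-7 weeks, combination agents dosed within 30 min of each other, animals euthanized once tumors exceeded 2 g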
Procedure: Docetaxel was administered intravenously at 10 mg/kg weekly for three injections.
HIgG1 Isotype control-humanised antibody (6.4-12.36 mg/ml) and VGX-100 (5.53 and 5.75 mg/ml) were provided as frozen colorless stock solutions in Dulbecco's phosphate buffered saline (DPBS) and stored from light at −80° C. The stock solutions were thawed and stored at 4° C. when treatment began. The dosing solutions (40 mg/kg in 0.2 ml/20 g body weight) were prepared by diluting the stock solution with DPBS. The resulting formulations were clear with pH values ranging from 7.02-7.21. The dosing vials were kept on wet ice during dosing, gently pipetted and not aspirated through a needle except during administration. Dosing solutions were prepared weekly in DPBS and stored protected from light at 4° C. while not in use.
Docetaxel (lot no. D9A095) was manufactured by Sanofi-Aventis and obtained from McKesson as a pale yellow solution in 50% EtOH/50% Tween80. It was stored protected from light at 4° C. Docetaxel was diluted as directed on the package insert with the provided diluent (sterile water) to produce a clear and colorless 10 mg/ml stock solution. On each treatment day, a fresh 10 mg/ml stock was prepared and further diluted with water to achieve the appropriate concentration. The resulting solution was clear and colorless with a pH of 7.16.
All test articles were administered within two hours of preparation. For groups receiving combination therapy, the drugs were administered in the order presented in Table 1 and within 30 minutes of one another.
Male NCR(NCRNU-M) athymic mice were obtained from Taconic. They were 6-7 weeks old on Day 1 of the experiment. The mice were fed irradiated Rodent Diet 5053 (LabDiet™) and water ad libitum. The mice were housed in static cages with Bed-O'Cobs™ bedding inside Biobubble® Clean Rooms that provide H.E.P.A filtered air into the bubble environment at 100 complete air changes per hour. All treatments, body weight determinations, and tumor measurements were carried out in the bubble environment. The environment was controlled to a temperature range of 21.1±1.1° C. (70±2° F.) and a humidity range of 30-70%.
Test mice were implanted subcutaneously on Day 0. […] Mice with tumors in excess of 2 g or with ulcerated tumors were euthanized, as were those found in obvious distress or in a moribund condition.
PC-3 cells were obtained from ATCC and expanded using Ham's F-12 media supplemented with 10% fetal bovine serum and 1% penicillin-streptomycin-glutamine in 5% CO2 atmosphere at 37° C. When expansion was complete, the cells were collected using Trypsin (Cell Gro®), the trypsin neutralized, and the cells pooled for implantation. The PC-3 (Passage 10) cell suspension was counted using trypan blue exclusion with a hemacytometer. The cell suspension was reduced to a pellet using an Eppendorf 5810R centrifuge at 1500 rpm (300×g) for 5 minutes at 4° C. A 2.5×10^7 cells/ml suspension was prepared in 50% serum free media and 50% Matrigel®. Pre-injection viability was 97.7%. Test animals were implanted subcutaneously on Day 0 with 5×10^6 cells/animal (0.2 ml) using a 27-gauge needle and syringe. The cell suspension was maintained on wet ice to minimize the loss of viability and inverted frequently to maintain a uniform cell suspension during the inoculation procedure.
Treatments began on Day 8, when the mean estimated tumor mass for all groups in the experiment was 129 mg (range of group means, 123-134 mg). All animals weighed≧19.2 g at the initiation of therapy. Mean group body weights at first treatment were matched (range of group means, 21.5-22.8 g). All animals were dosed according to individual body weight on the day of treatment (0.2 ml/20 g).

[2] = system: KP4 human pancreatic tumors; assay: KP4 pancreatic xenograft (Example 8); settings: VGX-100 40 mg/kg and/or Avastin 10 mg/kg; for % T/C: after 30 days
Procedure: VGX-100 was administered at 20 or 40 mg/kg for single therapy and at 40/mg/kg for combination therapy.
To initiate the study, 5×10^6 of KP4 cells suspended in 100 μl of a mixture of medium/Matrigel (1:1) were subcutaneously implanted to the nude mice in the right flank region. Cancer cells were implanted into 90 mice. Animals were monitored for tumor growth daily after cell implantation. When tumor volumes reached 80-100 mm^3, mice were randomized into 5 groups of 10 mice each using only mice having tumor volumes closest to the mean value. Mice with tumor volumes too big or too small were excluded from the study. Tumor volumes were measured using the formula V=L×W×H×π/6, where L and W represented the longer and shorter diameters of the tumor and H represented the height of the tumor. The treatment with drugs was initiated on the day after randomization. […] All treatments were administered intraperitoneally twice weekly for 30 days.
Throughout the entire study, tumor volumes were measured twice weekly and body weights once weekly. […] Unscheduled sacrifices were performed if tumor volumes reached>2,000 mm^3, animals lost>25% of their original body weights, tumor ulceration appeared, or mice became moribund. At the end of the experiment, tumors were removed, embedded in Optimal Cutting Temperature (OCT), and stored at −80° C. for IHC analysis. Gross examination was conducted on liver, lung, spleen, kidneys, testes, and prostate. If no abnormal observation was detected on these organs, the tissues were discarded.
Tumor size was measured 2-3 times weekly with calipers. Size of tumors relative to controls is calculated after 30 days of treatment.

[3] = system: U87MG human glioblastoma tumors; assay: U87MG glioblastoma xenograft, combination (Example 7); type: in vivo, nude mice; settings: VGX-100 40 mg/kg, bevacizumab 10 mg/kg, administered alone
Procedure: This experiment was conducted broadly in accordance with Example 3, except that U87MG glioblastoma cells were substituted for PC-3 prostate cancer cells. Cells from a human glioblastoma tumor line (U87MG) were implanted subcutaneously into mice and grown until the tumors reached an average size of approximately 150 mg. […] There were 10 animals per treatment group.

[4] = system: metastatic colorectal cancer; settings: cited from earlier work
[5] = tumor doubling time, individual animals
[6] = subjects progressed following 5-FU therapy
[7] = Mayo Clinic or Roswell Park regimen, newly diagnosed

Molecule	Time to evaluation size ([1]; 750 mg, individual animals)	Tumor Growth Delay ([1]; same doses)	% T/C Day 22 [1]	% TFS (tumor free survivors) ([1]; same doses)	Td ([1]; group mean)	Td ([1]; group median)	Time to evaluation size ([1]; group median)	Complete regression ([1]; individual animals)	Partial regression ([1]; individual animals)	Tumor free survivor ([1]; individual animals)	Total CR [1]	Total PR [1]	Total TFS [1]	% CR (complete regression) ([1]; same doses)	% PR (partial regression) ([1]; same doses)	Apparent Net Tumor Cell Kill (logs) ([1]; same doses)	Td [1, 5]	also measured
CC(=O)O[C@@]12CO[C@@H]1C[C@H](O)[C@@]1(C)C(=O)[C@H](O)C3=C(C)[C@@H](OC(=O)[C@H](O)[C@@H](NC(=O)OC(C)(C)C)c4ccccc4)C[C@@](O)([C@@H](OC(=O)c4ccccc4)[C@H]21)C3(C)C [Docetaxel, docetaxel]	81.0 days (2×) and >160 days (2×) and 62.3 days and 89.1 days and 72.1 days and 69.0 days and 62.5 days and 66.5 days	56.5 days	8%	Twenty percent and 20%	8.8 days	8.8 days	76.5 days	yes	no	no (8×) and yes (2×)	10	0	2	100%	0%	1.13 logs	5.1 days and 8.5 days and 9.4 days and 9.1 days and 13.2 days and 6.5 days and 13.4 days and 5.0 days	% T/C: tumor burden in treatment group compared to control ([1]; at day 160): 82.4%; Time to fold growth EP ([1]; group mean): 86.0 days; Time to fold growth EP ([1]; group median): 69.6 days; Time to fold growth EP ([1]; individual animals): 78.1 days and >160 days (2×) and 57.4 days and 81.6 days and 65.4 days and 58.5 days and 60.0 days and 73.3 days and 65.9 days; Anticancer activity of regimen ([1]; same doses): highly active; Average Survival ([1]; study to day 160): 108.6 days
Bevacizumab: recombinant humanized VEGF-A monoclonal antibody	36.3 days and 24.4 days and 25.8 days and 33.0 days and 30.5 days and 25.2 days and 25.4 days and 44.3 days and 18.0 days and 22.7 days	5.6 days	70%	0%	12.2 days	9.6 days	25.6 days	no	no	no	0	0	0	0%	0%	−4.91 logs	16.9 days and 7.4 days and 7.5 days and 13.7 days and 16.8 days and 10.6 days and 8.6 days and 27.8 days and 4.8 days and 8.4 days	Mean Tumor Vol. at D30 (mm3) [2]: 596.7 mm3; % T/C ([2]; listed as Avastin): 30.4%; % T/C ([2]; listed as bevacizumab): 30.4%; Time to evaluation size ([1]; group mean): 28.6 days; Tumor regressions ([1]; same doses): No tumor regressions were observed; Effect on tumor growth [3]: only a minor effect
CCc1c2c(nc3ccc(OC(=O)N4CCC(N5CCCCC5)CC4)cc13)-c1cc3c(c(=O)n1C2)COC(=O)[C@]3(O)CC [irinotecan]																		Prolongation of survival vs best supportive care [4, 6]: 2.8 month; Prolongation of survival vs infusional 5-FU [4, 6]: 2.2 month
5-FU/leucovorin																		Median survival [4, 7]: 12-14 months; Median time to disease progression [4, 7]: 4-5 months
